Assays:
NAMPT = NAMPT (Homo sapiens, UniProt P43490); test: NAMPT Biochemical Assay (NMN formation by LC-MS); settings: relative IC50; 1.5 nM NAMPT, 2 hours at room temperature; read-out: IC50 (inhibition of NAMPT catalytic activity, NMN formation)
Method: The purpose of this assay is to measure the ability of a compound to inhibit NAMPT catalytic activity. Reaction mixtures (25 μL) containing 50 mM HEPES at pH 7.5, 50 mM NaCl, 1 mM DTT, 0.005% TRITON® X-100, 1.5 μM phosphoribosyl-pyrophosphate, 0.5 μM nicotinamide (NAM), 1.5 nM NAMPT, 2.5 mM ATP, 1.25 mM MgCl2, 4% (v/v) DMSO and compounds after a ten-point series dilution from either 1 μM to 50 pM or 0.1 μM to 5 pM (final) are prepared. The reaction mixtures are incubated at room temperature for 2 hours. The reaction is terminated by the addition of ACN (25 μL) containing nicotinamide mononucleotide-d4 (NMN-d4) as an internal standard (final concentration: 5 μM). […] A positive control group (enzyme and DMSO, but no compound) is used to measure minimum inhibition (0%) of NMN formation. Percent inhibition of compound treated groups is calculated relative to the minimum inhibition group. The relative IC50 for each compound is calculated from a dose response study and is the concentration necessary to achieve 50% inhibition at this time point using the above disclosed ranges of 1 μM to 50 pM (final). The data generated from the dose-response studies is fit to a four-parameter logistic equation using ACTIVITYBASE 4.0 Equation 205.

A2780 Cancer Cells = test: LC-MS Analysis of NAD+ and Carbohydrate Metabolites in A2780 Cancer Cells; format: cell-based; settings: A2780 cells, 24 hours
Method: The purpose of this assay is to measure effects of NAMPT inhibitors on NAD^+ formation in cancer cells. LC-MS analysis of NAD^+ metabolites: nicotinamide mononucleotide (NMN), NAD^+, reduced nicotinamide adenine dinucleotide (NADH), and nicotinamide adenine dinucleotide phosphate (NADP) is performed on an HPLC system coupled to a Thermo Quantum Ultra triple quadrupole mass spectrometer operated in positive heated electrospray mode with selected reaction monitoring detection. For cell extracts, 50 μL of extract and 10 μL of 10 μM internal standard (IS) solution is transferred to a 96-well plate, dried under nitrogen and reconstituted in 50 μL of water. For tissue extracts, 20 μL of extract and 10 μL of IS solution are dried and reconstituted in 50 μL water. The IS solution contains 10 μM nicotinamide-d4 (C/D/N Isotopes), nicotinic acid-d4 (C/D/N Isotopes), nicotinamide mononucleotide-d4 (prepared by custom synthesis) and nicotinamide 1,N^6-ethenoadenine dinucleotide in methanol. The metabolites are separated on a Waters XBRIDGE™ Amide (2.1×50 mm, 3 μm) with an injection volume of 10 μL and a flow rate of 1 mL/minute using 10 mM ammonium acetate in 95% acetonitrile for mobile phase A and 10 mM ammonium acetate in 50% acetonitrile for mobile phase B. The gradient is as follows: 0 minutes, 0% B; 2.5 minutes, 70% B; 2.51 minutes, 100% B; 2.8 minutes, 100% B; 2.81 minutes, 0% B, 3.6 minutes, 0% B.
The purpose of this assay is to measure effects of NAMPT inhibitors on the levels of metabolites such as glucose-6-phosphate/fructose-6-phosphate/fructose-1-phosphate collectively as hexose phosphate (HP), fructose-1,6-bisphosphate (FBP), glyceraldehyde-3-phosphate (G3P), dihydroxyacetone phosphate (DHAP), 3-phosphoglycerate (3PG), 2-phosphoglycerate (2PG), phosphoenoylpyruvate (PEP), gluconate-6-phosphate (GN6P), xylulose-5-phosphate (X5P), ribulose-5-phosphate (Ru5P), ribose-5-phosphate (R5P), sedoheptulose-7-phosphate/sedoheptulose-1-phosphate collectively as sedoheptulose phosphate (SP), erythrose-4-phosphate (E4P), and α-ketoglutarate (α-KG) derived from glycolysis, the TCA cycle, and the pentose-phosphate pathway in tumor cells. Cells (50,000/well) are grown as described above in 100 μL of Dulbecco's Modified Eagle Medium supplemented with 10% FBS (dialyzed) and 25 mM glucose, and treated with a compound in triplicates in the presence or absence of 10 μM nicotinic acid. After 24 hours of treatment, the growth medium is removed and 200 μL of 80% methanol is added to each well. After incubation at room temperature for 15 minutes, the resulting extracts are transferred to 96-deep-well plates and washed twice with 200 μL of 80% methanol/water. Then, the plates are heat sealed and stored at −80° C., or dried and reconstituted in 100 μL of 25 μM ethylenediaminetetraacetic acid and injected into LC-MS for analysis.
The LC-MS analysis for carbohydrate metabolites is performed as follows. Chromatographic separations are performed with an HPLC system, which is coupled to an AB Sciex triple quadrupole LC-MS mass spectrometer. Analytes with phosphates are analyzed as follows. The samples are dried and reconstituted in ACN/water solutions and are separated on a Phenomenex Luna amino HPLC column (2.1×30 mm 3 μm) under the conditions as described by Yuan et al. (Nature Protocols, 2012, […], 872-881.). The mass spectrometer is operated under negative ESI MRM mode.

Chain of NAMPT (P43490 whole entry): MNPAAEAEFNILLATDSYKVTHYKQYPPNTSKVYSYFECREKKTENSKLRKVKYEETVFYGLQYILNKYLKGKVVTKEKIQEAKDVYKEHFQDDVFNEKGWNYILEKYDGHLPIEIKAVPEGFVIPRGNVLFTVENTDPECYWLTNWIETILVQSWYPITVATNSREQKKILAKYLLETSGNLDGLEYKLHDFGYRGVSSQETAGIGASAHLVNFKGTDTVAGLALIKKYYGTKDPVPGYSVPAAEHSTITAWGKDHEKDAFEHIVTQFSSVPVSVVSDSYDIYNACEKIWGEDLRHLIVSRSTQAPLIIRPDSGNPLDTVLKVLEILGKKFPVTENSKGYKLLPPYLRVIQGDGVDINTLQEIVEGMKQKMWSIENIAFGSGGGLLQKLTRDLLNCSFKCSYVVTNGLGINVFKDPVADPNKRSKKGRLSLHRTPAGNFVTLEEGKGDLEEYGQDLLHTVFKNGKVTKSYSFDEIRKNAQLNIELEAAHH

SMILES: COCCS(=O)(=O)Nc1ccc2c(c1)CCN(C(=O)COc1cccnc1)C2 [Example 2, 2-Methoxy-N-[2-[2-(3-pyridyloxy)acetyl]-3,4-dihydro-1H-isoquinolin-6-yl]ethanesulfonamide]
- IC50 (NAMPT): 1.1 nM
- Metabolite Levels (μM) DHAP (A2780 Cancer Cells; compound 0.000508 μM): 0.5 µM
- Metabolite Levels (μM) FBP (A2780 Cancer Cells; compound 0.000508 μM): 1.4 µM
- Metabolite Levels (μM) HP (A2780 Cancer Cells; compound 0.000508 μM): 1.6 µM
- Metabolite Levels (μM) NAD (A2780 Cancer Cells; compound 0.000508 μM): 0.527 µM
- Metabolite Levels (μM) SP (A2780 Cancer Cells; compound 0.000508 μM): 0.2 µM
- Metabolite Levels (μM) DHAP (A2780 Cancer Cells; compound 0.00152 μM): 0.9 µM
- Metabolite Levels (μM) FBP (A2780 Cancer Cells; compound 0.00152 μM): 1.8 µM
- Metabolite Levels (μM) HP (A2780 Cancer Cells; compound 0.00152 μM): 1.6 µM
- Metabolite Levels (μM) NAD (A2780 Cancer Cells; compound 0.00152 μM): 0.457 µM
- Metabolite Levels (μM) SP (A2780 Cancer Cells; compound 0.00152 μM): 0.2 µM
- Metabolite Levels (μM) DHAP (A2780 Cancer Cells; compound 0.00457 μM): 3.2 µM
- Metabolite Levels (μM) FBP (A2780 Cancer Cells; compound 0.00457 μM): 2.2 µM
- Metabolite Levels (μM) HP (A2780 Cancer Cells; compound 0.00457 μM): 1.6 µM
- Metabolite Levels (μM) NAD (A2780 Cancer Cells; compound 0.00457 μM): 0.255 µM
- Metabolite Levels (μM) SP (A2780 Cancer Cells; compound 0.00457 μM): 0.2 µM
- Metabolite Levels (μM) DHAP (A2780 Cancer Cells; compound 0.0137 μM): 6.3 µM
- Metabolite Levels (μM) FBP (A2780 Cancer Cells; compound 0.0137 μM): 3.2 µM
- Metabolite Levels (μM) HP (A2780 Cancer Cells; compound 0.0137 μM): 1.9 µM
- Metabolite Levels (μM) NAD (A2780 Cancer Cells; compound 0.0137 μM): 0.087 µM
- Metabolite Levels (μM) SP (A2780 Cancer Cells; compound 0.0137 μM): 0.3 µM
- Metabolite Levels (μM) DHAP (A2780 Cancer Cells; compound 0.0412 μM): 6.5 µM
- Metabolite Levels (μM) FBP (A2780 Cancer Cells; compound 0.0412 μM): 6.4 µM
- Metabolite Levels (μM) HP (A2780 Cancer Cells; compound 0.0412 μM): 2.8 µM
- Metabolite Levels (μM) NAD (A2780 Cancer Cells; compound 0.0412 μM): 0.039 µM
- Metabolite Levels (μM) SP (A2780 Cancer Cells; compound 0.0412 μM): 0.5 µM
- Metabolite Levels (μM) DHAP (A2780 Cancer Cells; compound 0.123 μM): 7.1 µM
- Metabolite Levels (μM) FBP (A2780 Cancer Cells; compound 0.123 μM): 15.5 µM
- Metabolite Levels (μM) HP (A2780 Cancer Cells; compound 0.123 μM): 7.2 µM
- Metabolite Levels (μM) NAD (A2780 Cancer Cells; compound 0.123 μM): 0.023 µM
- Metabolite Levels (μM) SP (A2780 Cancer Cells; compound 0.123 μM): 1.3 µM
- Metabolite Levels (μM) DHAP (A2780 Cancer Cells; compound 0.37 μM): 7.1 µM
- Metabolite Levels (μM) FBP (A2780 Cancer Cells; compound 0.37 μM): 22.8 µM
- Metabolite Levels (μM) HP (A2780 Cancer Cells; compound 0.37 μM): 11.0 µM
- Metabolite Levels (μM) NAD (A2780 Cancer Cells; compound 0.37 μM): 0.022 µM
- Metabolite Levels (μM) SP (A2780 Cancer Cells; compound 0.37 μM): 2.2 µM
- Metabolite Levels (μM) DHAP (A2780 Cancer Cells; compound 1.111 μM): 7.3 µM
- Metabolite Levels (μM) FBP (A2780 Cancer Cells; compound 1.111 μM): 24.1 µM
- Metabolite Levels (μM) HP (A2780 Cancer Cells; compound 1.111 μM): 11.8 µM
- Metabolite Levels (μM) NAD (A2780 Cancer Cells; compound 1.111 μM): 0.017 µM
- Metabolite Levels (μM) SP (A2780 Cancer Cells; compound 1.111 μM): 2.5 µM
- Metabolite Levels (μM) DHAP (A2780 Cancer Cells; compound 3.333 μM): 7.6 µM
- Metabolite Levels (μM) FBP (A2780 Cancer Cells; compound 3.333 μM): 23.4 µM
- Metabolite Levels (μM) HP (A2780 Cancer Cells; compound 3.333 μM): 12.8 µM
- Metabolite Levels (μM) NAD (A2780 Cancer Cells; compound 3.333 μM): 0.02 µM
- Metabolite Levels (μM) SP (A2780 Cancer Cells; compound 3.333 μM): 2.5 µM
- Metabolite Levels (μM) DHAP (A2780 Cancer Cells; compound 10 μM): 7.7 µM
- Metabolite Levels (μM) FBP (A2780 Cancer Cells; compound 10 μM): 21.5 µM
- Metabolite Levels (μM) HP (A2780 Cancer Cells; compound 10 μM): 10.9 µM
- Metabolite Levels (μM) NAD (A2780 Cancer Cells; compound 10 μM): 0.02 µM
- Metabolite Levels (μM) SP (A2780 Cancer Cells; compound 10 μM): 2.1 µM

Source: US20160229835A1, “NOVEL PYRIDYLOXYACETYL TETRAHYDROISOQUINOLINE COMPOUNDS USEFUL AS NAMPT INHIBITORS” (ELI LILLY AND COMPANY, priority 2013, published 2016)
